Each compound was assayed against human A2A receptor (A2AR) (Homo sapiens, UniProt P29274) (assay: Luciferase reporter assay (HEK293-A2AR-luc2p/CRE/Hygro cells, 3 nM CGS21680)). Settings: 3 nM CGS21680, 5 h incubation.
Format: cell-based
Experimental: HEK293 cells were maintained in Dulbecco's modified Eagle's medium (DMEM, Gibco) supplemented with 10% fetal bovine serum (FBS, Thermo Scientific), 100 units/mL penicillin (Gibco), and 0.1 mg/mL streptomycin (Gibco) in a humidified 37° C. environment with 5% C02. Plasmid encoding wild-type human A2A receptor (A2AR) (in pcDNA3.1) was synthesized by Genscript (Nanjing, China). Transfection of the plasmids was performed in 6-well plates with 4×10^5 cells using Lipofectamin 2000 (ThermoFisher Scientific) according to the instruction of the manufacturer. Cell clones that stably express A2AR were established and maintained in the same complete medium as the HEK293 cells in addition of G-418 (Gibico). Expression level of A2AR in each single cell clone was determined using immunoblotting and FACS method. HEK293-A2AR stable cells were then transfected with pGL4.29[luc2P/CRE/Hygro] (Promega) luciferase reporter plasmid for establishing the HEK293-A2AR-luc2p/CRE/Hygro stable cell line.
HEK293-A2AR-luc2p/CRE/Hygro cells were seeded at a density of 5,000 cells/well in DMEM with 1% FBS and 1 U/mL adenosine deaminase (ADA) (Sigma). After 18 h, the cells were treated with 3 nM CGS21680 plus a series dilution of A2AR antagonist, the compounds disclosed herein at the concentration of 0.1˜10000 nM, prepared in DMEM with 1% FBS. After 5 h incubation, the luciferase activity in cells were measured using the Bright-Glo Luciferase Assay System (Promega) according to manufacturer's instructions. The luminescence signal was measured using a PHERAstar FS plate reader (BMG Labtech). […] Maximal luminescence intensity was determined in the presence of 3 nM CGS21680 and was set as 100%. The IC50 value was calculated from a dose dependent inhibition curve across the range of compound concentrations.

human A2A receptor (A2AR), sequence (P29274 whole entry): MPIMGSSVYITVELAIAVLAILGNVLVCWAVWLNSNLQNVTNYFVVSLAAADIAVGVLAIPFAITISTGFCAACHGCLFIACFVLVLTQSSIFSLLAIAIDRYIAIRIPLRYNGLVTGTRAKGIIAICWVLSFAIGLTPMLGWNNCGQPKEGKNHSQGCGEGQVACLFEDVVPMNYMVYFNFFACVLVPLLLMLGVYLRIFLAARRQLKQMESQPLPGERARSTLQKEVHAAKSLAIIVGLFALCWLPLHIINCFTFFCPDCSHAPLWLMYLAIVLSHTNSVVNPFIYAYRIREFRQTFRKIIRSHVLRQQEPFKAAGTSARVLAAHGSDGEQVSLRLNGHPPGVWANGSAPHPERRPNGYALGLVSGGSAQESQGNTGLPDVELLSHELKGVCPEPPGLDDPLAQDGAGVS

Point of comparison: `COCCOc1ccc(N2CCN(C(=O)C(C(C)C)n3ncc4c3nc(N)n3nc(-c5ccco5)nc43)CC2)cc1` (stereo not shown) [Compound A2, 2-(5-amino-2-(furan-2-yl)-7H-pyrazolo[4,3-e][1,2,4]Triazolo[1,5-c]pyrimidin-7-yl)-1-(4-(4-(2-methoxyethoxy)phenyl)piperazin-1-yl)-3-methylbutan-1-one], IC50 96.9 nM. Against it:
- COCCOc1ccc(N2CCN(C(=O)C(C)n3ncc4c3nc(N)n3nc(-c5ccco5)nc43)CC2)cc1 (single isomer, unassigned) [Compound A1a, 2-(5-amino-2-(furan-2-yl)-7H-pyrazolo[4,3-e][1,2,4]triazolo[1,5-c]pyrimidin-7-yl)-1-(4-(4-(2-methoxyethoxy)phenyl)piperazin-1-yl)propan-1-one] — 2.3-fold higher, 223 nM
- COCCOc1ccc(N2CCN(C(=O)C(C)n3ncc4c3nc(N)n3nc(-c5ccco5)nc43)CC2)cc1 (single isomer, unassigned) [Compound A1b, 2-(5-amino-2-(furan-2-yl)-7H-pyrazolo[4,3-e][1,2,4]triazolo[1,5-c]pyrimidin-7-yl)-1-(4-(4-(2-methoxyethoxy)phenyl)piperazin-1-yl)propan-1-one] — 2.4-fold lower, 40 nM
- CCCC(C(=O)N1CCN(c2ccc(OCCOCCOC)cc2)CC1)n1ncc2c1nc(N)n1nc(-c3ccco3)nc21 (single isomer, unassigned) [Compound A6b, 2-(5-amino-2-(furan-2-yl)-7H-pyrazolo[4,3-e][1,2,4]triazolo[1,5-c]pyrimidin-7-yl)-1-(4-(4-(2-(2-methoxyethoxy)ethoxy)phenyl)piperazin-1-yl)pentan-1-one] — within 1.5-fold, 135 nM
- CCCCC(C(=O)N1CCN(c2ccc(OCCOCCOC)cc2)CC1)n1ncc2c1nc(N)n1nc(-c3ccco3)nc21 (single isomer, unassigned) [Compound A11a] — 21-fold lower, 4.6 nM
- CCCCC(C(=O)N1CCN(c2ccc(OCCOCCOC)cc2)CC1)n1ncc2c1nc(N)n1nc(-c3ccco3)nc21 (single isomer, unassigned) [Compound A11b] — within 1.5-fold, 121 nM
- COCCOCCOc1ccc(N2CCN(C(=O)C(CC(C)C)n3ncc4c3nc(N)n3nc(-c5ccco5)nc43)CC2)cc1 (single isomer, unassigned) [Compound A17a] — 110-fold lower, 0.9 nM
- COCCOCCOc1ccc(N2CCN(C(=O)C(CC(C)C)n3ncc4c3nc(N)n3nc(-c5ccco5)nc43)CC2)cc1 (single isomer, unassigned) [Compound A17b] — 1.7-fold higher, 160 nM
- CC(C)CC(C(=O)N1CCN(c2ccc(F)cc2F)CC1)n1ncc2c1nc(N)n1nc(-c3ccco3)nc21 (single isomer, unassigned) [Compound A22a] — 2.5-fold higher, 246 nM
- COCCOc1ccc(N2CCN(C(=O)C(c3ccccc3OC)n3ncc4c3nc(N)n3nc(-c5ccco5)nc43)CC2)cc1 (single isomer, unassigned) [Compound A31a] — 12-fold lower, 8.1 nM
- COCCOc1ccc(N2CCN(C(=O)C(c3ccccc3OC)n3ncc4c3nc(N)n3nc(-c5ccco5)nc43)CC2)cc1 (single isomer, unassigned) [Compound A31b] — 970-fold lower, 0.1 nM
- CCCC(C(=O)N1CCN(c2ccc(OCCN(C)C)cc2)CC1)n1ncc2c1nc(N)n1nc(-c3ccco3)nc21 (single isomer, unassigned) [Compound A39a] — within 1.5-fold, 127 nM
- COCCOc1ccc(N2CCN(C(=O)C(c3ccccc3F)n3ncc4c3nc(N)n3nc(-c5ccco5)nc43)CC2)cc1 (single isomer, unassigned) [Compound A43a] — 6-fold lower, 16.1 nM
- COCCOc1ccc(N2CCN(C(=O)C(c3ccccc3)n3ncc4c3nc(N)n3nc(-c5ccco5)nc43)CC2)c(F)c1 (single isomer, unassigned) [Compound A44a] — 2.5-fold lower, 39.2 nM
- COCCOc1ccc(N2CCN(C(=O)C(c3ccccc3)n3ncc4c3nc(N)n3nc(-c5ccco5)nc43)CC2)c(F)c1 (single isomer, unassigned) [Compound A44b] — 190-fold lower, 0.5 nM
- COCCOc1ccc(N2CCN(C(=O)C(c3ccccc3)n3ncc4c3nc(N)n3nc(-c5ccco5)nc43)CC2C)cc1 (single isomer, unassigned) [Compound A46a] — within 1.5-fold, 67.4 nM
- COCCOc1ccc(N2CCN(C(=O)C(c3ccccc3)n3ncc4c3nc(N)n3nc(-c5ccco5)nc43)CC2C)cc1 (single isomer, unassigned) [Compound A46b] — 110-fold lower, 0.9 nM
- COCCOc1ccc(N2CCN(C(=O)C(c3ccccc3)n3ncc4c3nc(N)n3nc(-c5ccco5)nc43)CC2C)cc1 (single isomer, unassigned) [Compound A47a] — 5.6-fold lower, 17.3 nM
- COCCOc1ccc(N2CCN(C(=O)C(c3ccccc3)n3ncc4c3nc(N)n3nc(-c5ccco5)nc43)CC2C)cc1 (single isomer, unassigned) [Compound A47b] — 480-fold lower, 0.2 nM
- COCCOc1ccc(N2CCN(C(=O)C(c3ccccc3)n3ncc4c3nc(N)n3nc(-c5ccco5)nc43)C(C)C2)cc1 (single isomer, unassigned) [Compound A50a] — within 1.5-fold, 88.2 nM
- COCCOc1ccc(N2CCN(C(=O)C(c3ccccc3)n3ncc4c3nc(N)n3nc(-c5ccco5)nc43)C(C)C2)cc1 (single isomer, unassigned) [Compound A50b] — 97-fold lower, 1 nM
- CN(C)CCOc1ccc(N2CCN(C(=O)C(C)(c3ccccc3)n3ncc4c3nc(N)n3nc(-c5ccco5)nc43)CC2)cc1 (single isomer, unassigned) [Compound A71a] — 8.9-fold lower, 10.9 nM
- CN(C)CCOc1ccc(N2CCN(C(=O)C(C)(c3ccccc3)n3ncc4c3nc(N)n3nc(-c5ccco5)nc43)CC2)cc1 (single isomer, unassigned) [Compound A71b] — 20-fold lower, 4.8 nM
- Nc1nc2c(cnn2C(C(=O)N2CCc3ccccc3C2)c2ccccc2)c2nc(-c3ccco3)nn12 (single isomer, unassigned) [Compound B3a] — 4.5-fold lower, 21.6 nM
- Nc1nc2c(cnn2C(C(=O)N2CCc3cc(F)ccc3C2)c2ccccc2)c2nc(-c3ccco3)nn12 (single isomer, unassigned) [Compound B7a] — 3.3-fold lower, 29.1 nM
- Nc1nc2c(cnn2C(C(=O)N2CCc3cc(F)ccc3C2)c2ccccc2)c2nc(-c3ccco3)nn12 (single isomer, unassigned) [Compound B7b] — 190-fold lower, 0.5 nM
- CCCC(C(=O)N1CCN(c2ccc(OCCOC)cc2)CC1)n1cc2c(nc(N)n3nc(-c4ccco4)nc23)n1 (single isomer, unassigned) [Compound C5a] — 1.8-fold lower, 55 nM
- CCCC(C(=O)N1CCN(c2ccc(OCCOC)cc2)CC1)n1cc2c(nc(N)n3nc(-c4ccco4)nc23)n1 (single isomer, unassigned) [Compound C5b] — 2.2-fold higher, 209 nM
- COCCOc1ccc(N2CCN(C(=O)C(C3CC3)n3cc4c(nc(N)n5nc(-c6ccco6)nc45)n3)CC2)cc1 (single isomer, unassigned) [Compound C16a] — 24-fold lower, 4.1 nM
- COCCOc1ccc(N2CCN(C(=O)C(C3CC3)n3cc4c(nc(N)n5nc(-c6ccco6)nc45)n3)CC2)cc1 (single isomer, unassigned) [Compound C16b] — 1.7-fold higher, 168 nM
- COCCOc1ccc(N2CCN(C(=O)C(C)(c3ccccc3)n3cc4c(nc(N)n5nc(-c6ccco6)nc45)n3)CC2)cc1 (single isomer, unassigned) [Compound C25a] — within 1.5-fold, 79.8 nM
- COCCOc1ccc(N2CCN(C(=O)C(C)(c3ccccc3)n3cc4c(nc(N)n5nc(-c6ccco6)nc45)n3)CC2)cc1 (single isomer, unassigned) [Compound C25b] — 4.6-fold lower, 21.2 nM
- COCCOc1ccc(N2CCN(C(=O)C(C)n3ncc4c3nc(N)n3nc(-c5ccco5)nc43)CC2)cc1 (stereo not shown) [Compound A1, 2-(5-amino-2-(furan-2-yl)-7H-pyrazolo[4,3-e][1,2,4]triazolo[1,5-c]pyrimidin-7-yl)-1-(4-(4-(2-methoxyethoxy)phenyl)piperazin-1-yl)propan-1-one] — 2.3-fold lower, 42.9 nM
- COCCOc1ccc(N2CCN(C(=O)C(C)(C)n3ncc4c3nc(N)n3nc(-c5ccco5)nc43)CC2)cc1 [Compound A3, 2-(5-amino-2-(furan-2-yl)-7H-pyrazolo[4,3-e][1,2,4]triazolo[1,5-c]pyrimidin-7-yl)-1-(4-(4-(2-methoxyethoxy)phenyl)piperazin-1-yl)-2-methylpropan-1-one] — 3.7-fold higher, 362 nM
- CCC(C(=O)N1CCN(c2ccc(OCCOC)cc2)CC1)n1ncc2c1nc(N)n1nc(-c3ccco3)nc21 (stereo not shown) [Compound A4, 2-(5-amino-2-(furan-2-yl)-7H-pyrazolo[4,3-e][1,2,4]triazolo[1,5-c]pyrimidin-7-yl)-1-(4-(4-(2-methoxyethoxy)phenyl)piperazin-1-yl)butan-1-one] — 2.2-fold lower, 43.5 nM
- CCCC(C(=O)N1CCN(c2ccc(OCCOC)cc2)CC1)n1ncc2c1nc(N)n1nc(-c3ccco3)nc21 (stereo not shown) [Compound A5, 2-(5-amino-2-(furan-2-yl)-7H-pyrazolo[4,3-e][1,2,4]triazolo[1,5-c]pyrimidin-7-yl)-1-(4-(4-(2-methoxyethoxy)phenyl)piperazin-1-yl)pentan-1-one] — 11-fold lower, 9.1 nM
- CCCC(C(=O)N1CCN(c2ccc(OCCOCCOC)cc2)CC1)n1ncc2c1nc(N)n1nc(-c3ccco3)nc21 (stereo not shown) [Compound A6, 2-(5-amino-2-(furan-2-yl)-7H-pyrazolo[4,3-e][1,2,4]triazolo[1,5-c]pyrimidin-7-yl)-1-(4-(4-(2-(2-methoxyethoxy)ethoxy)phenyl)piperazin-1-yl)pentan-1-one] — 10-fold lower, 9.5 nM
